Entries after “also recorded” stand apart in the source; their conditions may differ.
How the values were obtained:
[1] = test system: everted sacs of rat small intestine (jejunum); assay: LDH release of the everted gut sac; details: TPGS 0.1 mg/mL, PEG 0.5% w/v, 90 min
Protocol: The viability and any possible damage of the gut were evaluated by measuring the release of the cytosolic enzyme lactic dehydrogenase (LDH) as an indicator of cell damage ([18]). The LDH activity was determined in the incubation media in the absence or presence of the excipients using LDH-P kit from Kimia pajouhan (Tehran, Iran). The results were calculated as U/L/cm^2 of sac area (1 unit reduces 10^-6 mol pyruvate per min at pH of 7.5). The influence of excipients (using the maximum concentrations) on the viability of gut sac was measured at 30, 60 and 90 min and compared to the control group (without adding any excipient).

[2] = test system: everted sacs of rat small intestine (jejunum); assay: Etoposide mucosal-to-serosal transport across everted gut sac in absence or presence of excipients/P-gp inhibitor; assay type: in vitro ADME; details: etoposide 25 μg/mL; verapamil 100 μg/mL, TPGS 0.002-0.1 mg/mL, PEG 400 0.05, 0.1 and 0.5% w/v; compared to control
Protocol: (§1) The everted sac method was used as previously described ([25]). Everted intestinal sacs were prepared by quickly removing the small intestine from starved rats killed under CO2-anesthesia. The jejunum was excised, flushed through several times with saline solution at room temperature and placed immediately into oxygenated buffer solution at 37°C. Then the intestine was gently everted over a steel rod, filled with fresh oxygenated buffer solution and divided into sacs approximately 4.5 cm in length with silk suture. […] At the defined time points sacs were removed and blotted dry. The sacs were cut open and the serosal fluid was drained into small Eppendorf vial to determine the drug concentration. The area of each sac was calculated closely. Each sac was weighed before and after fluid collection to calculate accurately the volume inside the sac.
(§2) The chromatographic data was acquired by Chromgate 3.1 software from Knauer. Analyses were carried out at ambient temperature on a Chromolith Performance RP-18e (100 mm 4.6 mm i.d., Merck) coupled with a Chromolith RP-18e guard cartridge (5.0 mm 4.6 mm i.d., Merck).

[3] = test system: everted sacs of rat small intestine (jejunum); assay: Paracellular (lucifer yellow) and transcellular (imipramine) marker permeability across everted gut sac with or without TPGS; assay type: in vitro ADME
Protocol: as §1, §2

Substance | LDH release in presence of excipient versus control [1] | Effect on absorptive transport/permeability of etoposide (in words) [2] | Permeability of lucifer yellow ([3]; in absence of TPGS) | Permeability of lucifer yellow ([3]; in presence of TPGS 0.1 mg/mL)
PEG 400 | not notably changed | no effect; also recorded: not affected | – | –
Lucifer yellow | – | – | 9.3 ± 0.03 × 10^-6 cm/s | 9.65 ± 0.6 × 10^-6 cm/s
